Test results from US8742158B2, “Protease inhibitors” (TaiMed Biologics, Inc., priority 2006, dated 2014).
Where “and” joins values, the source holds several entries; their conditions need not be identical. Identical values can stand only once. Like-named read-outs stand apart in the source and are kept apart here.

Tests used:
HIV-1 Protease = HIV-1 Protease (Human immunodeficiency virus type 1 group M subtype B (isolate HXB2) (HIV-1), UniProt P04585); test: Enzymatic (FRET fluorometric) assay for determining the inhibition constant (Ki) of compounds targeting the HIV protease; assay type: biochemical; details: for IC50: read-out: IC50 ENZYME HIV-1 Protease
From the text: Enzymatic Assay for Determining the Inhibition Constant (Ki) of Synthetic Compounds Targeting the HIV Protease
This is a fluorometric assay based on the cleavage by protease of a substrate carrying a donor group (EDANS) and an acceptor group (DABCYL) on each side of the cleavage site, interacting together through fluorescence resonance energy transfer (FRET) as described by Matayoshi et al. (Science 247:[…], 1990).
After calculation of Vo and Vi, the inhibition constant (Ki) of the compound is determined using the equation of Henderson:
where Vo=the enzyme's initial velocity
Vi=the enzyme velocity in the presence of the inhibitory compound,
[I]=inhibitor concentration, [S]=substrate concentration,
Km=Michaelis-Menten constant and Kiapp=apparent Ki
Graphs are traced and the Ki determined using GraphPad Prism software v. 3.0.

HIV-1 viral strain NL4-3 = test: Anti-viral assay in vitro (MTT, infected MT-4 cells, six days); assay type: cell-based; details: Human immunodeficiency virus 1, NL43, MT4, 144 h, read-out: ANTI-HIV-EC50 VIRAL STRAIN NL4-3
Experimental: Anti-Viral and Cytotoxicity Assays In Vitro
• To evaluate the EC50 of our compounds, various drug concentrations are incubated with the infected cell for six days and then the metabolic activity of the cells is monitored by the MTT assay. (See A. J. Japour et al., Antimicrobial Agents and Chemotherapy, 37, 1095-1101, 1993 and R. Pauwels et al. Journal of Virological Methods, 20, 309-321, 1988) • We use the laboratory viral strain NL4.3 as wild type virus and the cell line used is MT-4 which is a T-cell line highly sensitive to HIV-1. We also use some WT clinical strains. To address the resistance issue we assay the inhibitors with NL4.3 mutants which are designed to be resistant to specific commercially available inhibitors. • The same MTT assay is used to evaluate the CCIC50 (cell culture of IC50) of our compounds except that the virus is omitted.

[1] = calculated Ki, read-out: KI-CALC ENZYME HIV-1 Protease
[2] = KIGRAPHIC ENZYME HIV-1 Protease, Ki determined graphically, read-out: […] ENZYME HIV-1 Protease

| SMILES | Ki (HIV-1 Protease; [1]) [nM] | IC50 (HIV-1 Protease) [nM] | EC50 (HIV-1 viral strain NL4-3) [nM] | Ki (HIV-1 Protease; [2]) |
| --- | --- | --- | --- | --- |
| CC(C)CN([C@H](CO)CCCCNC(=O)[C@H](Cc1ccccc1Cl)NC(=O)c1ccncc1)S(=O)(=O)c1ccc(N)cc1 [EX 29] | < 3.8 | 3.81 | 144 | – |
| CC(C)CN([C@H](CO)CCCCNC(=O)[C@@H](NS(=O)(=O)c1cccs1)C(c1ccccc1)c1ccccc1)S(=O)(=O)c1ccc(N)cc1 [EX 57] | < 3.8 | 0.601 | 64 | 0.541 nM |
| Cc1ccc(C(=O)N[C@@H](Cc2ccccc2C)C(=O)NCCCC[C@@H](CO)N(CC(C)C)S(=O)(=O)c2ccc(N)cc2)cn1 [EX 21] | < 3.8 | 1.29 | 198 | – |
| CC(C)CN([C@H](CO)CCCCNC(=O)[C@@H](NC(=O)NCc1ccncc1)C(c1ccccc1)c1ccccc1)S(=O)(=O)c1ccc(N)cc1 [EX 62] | < 3.8 | 0.51 | 170 | 0.443 nM |
| CC(C)CN([C@H](CO)CCCCNC(=O)[C@@H](Cc1ccccc1Br)NC(=O)c1ccc2c(c1)OCO2)S(=O)(=O)c1ccc(N)cc1 [EX. 41] | – | 0.336 | 43 | 0.05 nM |
| CC(C)CN([C@H](CO)CCCCNC(=O)[C@H](Cc1ccccc1Br)NC(=O)N1CCOCC1)S(=O)(=O)c1ccc2c(c1)CCO2 [EX 17] | < 3.8 | 0.599 | 665 | 1 nM and 1.03 nM |
| Cc1ccccc1C[C@H](NC(=O)c1cccnc1)C(=O)NCCCC[C@@H](CO)N(CC(C)C)S(=O)(=O)c1ccc(N)cc1 [EX 20] | < 3.8 | 1.42 | 148 | – |
| COC(=O)N[C@@H](Cc1ccccc1F)C(=O)NCCCC[C@H](CO)N(CC(C)C)S(=O)(=O)c1ccc2c(c1)OCCN2C [EX 14] | 75.7 | – | 1830 | – |
| Cc1ncccc1C(=O)N[C@@H](Cc1ccccc1Br)C(=O)NCCCC[C@@H](CO)N(CC(C)C)S(=O)(=O)c1ccc(N)cc1 [EX. 39] | < 3.8 | 0.58 | 70 | 0.183 nM |
| Cc1ccc(C(=O)N[C@@H](Cc2ccccc2Br)C(=O)NCCCC[C@@H](CO)N(CC(C)C)S(=O)(=O)c2ccc(N)cc2)cn1 [EX. 40] | < 3.8 | 0.567 | 55 | 0.217 nM |
| Cc1ccccc1C[C@H](NC(=O)c1ccncc1)C(=O)NCCCC[C@@H](CO)N(CC(C)C)S(=O)(=O)c1ccc(N)cc1 [EX 22] | < 3.8 | 1.35 | 158 | – |
| CC(C)CN([C@H](CO)CCCCNC(=O)[C@H](Cc1ccccc1Br)NC(=O)c1cccc(O)n1)S(=O)(=O)c1ccc(N)cc1 [EX 19] | – | 0.29 | 99 | 0.27 nM |
| Cc1ccccc1C[C@H](NC(=O)c1cccc(C)c1O)C(=O)NCCCC[C@@H](CO)N(CC(C)C)S(=O)(=O)c1ccc(N)cc1 [EX 23] | < 3.8 | 4.12 | > 50000 | – |
| CC(C)CN([C@H](CO)CCCCNC(=O)[C@H](Cc1ccccc1Br)NC(=O)OCc1ccncc1)S(=O)(=O)c1ccc(N)cc1 [EX 38] | – | 0.92 | 248 | 0.27 nM |
